{"source": "paper PMC6010545", "about": "“Identification of a Novel Polyamine Scaffold With Potent Efflux Pump Inhibition Activity Toward Multi-Drug Resistant Bacterial Pathogens” (Frontiers in Microbiology, 2018)", "key": {"[1]": {"test_system": "tetracycline-resistant P. aeruginosa isolate 1419", "experiment": "Checkerboard potentiation assay with tetracycline", "format": "cell-based, Pseudomonas aeruginosa", "method": "Scaffold ranking library samples and individual polyamines were screened using checkerboard inhibitory assays to assess the potentiation of tetracycline and chloramphenicol. The test utilized a 96-well plate microtiter assay where the concentration of the scaffold or individual polyamine was decreased from 25 to 0.8 μg mL^-1 (average molarity of mixture samples 65 to 4 μM) along the rows, and the concentration of tetracycline or chloramphenicol was increased from 0.4 to 100 μM across the columns. […] However, with the known antibiotics, we report EC90 values in μM, which more accurately describes purified compounds. Plates were incubated statically at 37°C for 20 h, and the optical density (OD600) was determined using a Synergy 2 plate reader (BioTek). Potentiation modeling (detailed below) was performed to determine fold change in the 50 and 90% effective concentration of tetracycline or chloramphenicol.\nPotentiation was quantified using a mathematical model developed by our group to assess the ability of library samples and individual compounds to effectively enhance the activity of tetracycline or chloramphenicol ([Hoel, 1987]). […] In this way, only libraries and compounds that potentiated tetracycline or chloramphenicol activity were pursued. The model is based on the following equation for modeling the percentage activity of a mixture of two agents with independent action ([Hoel, 1987]):\n%Antibiotic & Comp(X1,X2)=%Antibiotic(X1)+%Comp(X2)−%Antibiotic(X1)⋅%Comp(X2)\nHere, x1 and x2 are the concentrations of antibiotic (tetracycline or chloramphenicol) and library/compound (Comp) tested, respectively. This equation can be rearranged to model the effective percent activity (EC) of the antibiotic alone, after accounting for compound activity:\nEff%Antibiotic(X1)=%Antibiotic & Compound(X1,X2)−%Compound(X2)/1−%Compound(X2)\nThus, the model-adjusted checkerboards show the antibiotic activity post-potentiation, and from that one can determine the true change in Mic."}, "A. baumannii (1643)": {"test_system": "A. baumannii (1643)", "experiment": "Potentiation of levofloxacin", "format": "cell-based", "settings": "increasing polyamine concentration"}, "[2]": {"test_system": "P. aeruginosa proficient (1419) and deficient (1418) strain", "experiment": "Aztreonam combination testing in efflux proficient and deficient strains", "format": "cell-based", "settings": "strain 1419 (efflux proficient); polyamine 12.5 μg mL^-1, ½ X MIC aztreonam", "method": "FIGURE 6 Confirming efflux pump inhibition by polyamines using efflux deficient strains. (A) A P. aeruginosa proficient (1419) and deficient (1418) strain were subjected to combination testing of the polyamines at 12.5 μg mL^-1 and ½ X MIC of aztreonam. Fold potentiation was calculated by dividing the CFU mL^-1 for aztreonam only by the CFU mL^-1 of the combined treatment groups. (B) Lead polyamine 247 was assessed for its ability to potentiate the activity of chloramphenicol toward S. aureus strain United States 300 and its norA mutant. Shown is the potentiated chloramphenicol EC90 calculated as described in A. Error bars are shown ± SEM."}, "MTT cytotoxicity assay": {"experiment": "MTT cytotoxicity assay", "format": "cell-based", "settings": "human, 25 μg mL^-1, 48 h, read-out: percent recovery (cell viability)", "method": "To assess toxicity of polyamine compounds we used HepG2 human liver carcinoma cells and Hek293T human embryonic kidney epithelial cells. The viability of cell lines was determined using a 3-(4,5-dimethylthiazol-2-yl)-2,5-diphenyltetrazolium bromide (MTT) molecular probe as previously described by our group ([Fleeman et al., 2015]). Briefly, 247, 266, 271 (Hek293T), or 250, 271, 314 (HepG2), alongside control efflux pump inhibitor PaβN, were diluted in 10% DMF from 25 μg mL^-1 to 3 μg mL^-1 using twofold dilutions, before being added to cells in DMEM with 10% FBS and 1% penicillin/streptomycin. Cells were then incubated for 48 h at 37°C with 5% CO2. Following this, viability was assessed by the addition of MTT and measuring the OD570 in a Biotek plate reader. Percent recovery was determined compared to no drug controls."}}, "note": "Like-named read-outs stand apart in the source and are kept apart here."}
{"smiles": "NCCC[C@H](CN)NC[C@H](Cc1ccccc1)NCCc1ccccc1", "note": "[compound 271]", "values": [{"measurement": "FP* (fold potentiation of tetracycline EC50)", "setting": "[1]; 25 µg ml-1 TPI, EC50 tetracycline no TPI / with TPI", "result": 8.2, "unit": "fold"}, {"measurement": "FP# (fold potentiation of tetracycline EC90)", "setting": "[1]; 25 µg ml-1 TPI, EC90 tetracycline no TPI / with TPI", "result": 8.5, "unit": "fold"}, {"measurement": "FP* (fold potentiation of tetracycline EC50)", "setting": "[1]; EC50 tetracycline without EPI / with EPI", "result": 8.2, "unit": "fold"}, {"measurement": "FP# (fold potentiation of tetracycline EC90)", "setting": "[1]; EC90 tetracycline without EPI / with EPI", "result": 8.5, "unit": "fold"}, {"measurement": "EC50", "setting": "[1]; Pseudomonas aeruginosa, 20 h, inhibitor alone, 25 μg mL^-1 highest concentration tested, * = EC50, read-out: EPI* (inhibitory concentration of efflux pump inhibitor alone)", "result": "> 25", "unit": "µg/mL"}, {"measurement": "TPI (inhibitory concentration of polyamine alone)", "setting": "[1]; polyamine alone, 25 µg ml-1 highest tested", "result": "> 25", "unit": "µg/mL"}, {"measurement": "potentiation of levofloxacin", "setting": "A. baumannii (1643)", "result": "dose response curve of antibiotic potentiation"}, {"measurement": "potentiation of aztreonam", "setting": "[2]", "result": "best potentiators of aztreonam"}, {"measurement": "recovery at 48 h, 25 μg mL^-1", "setting": "MTT cytotoxicity assay; Hek293T human embryonic kidney epithelial cells, vs solvent only controls", "result": 75, "unit": "%"}, {"measurement": "recovery at 48 h, 25 μg mL^-1", "setting": "MTT cytotoxicity assay; HepG2 human liver carcinoma cells", "result": 74, "unit": "%"}]}
